Laboratory results reported in ChEMBL document CHEMBL1152666, “Structure-based virtual screening approach to the discovery of novel inhibitors of factor-inhibiting HIF-1: identification of new chelating groups for the active-site ferrous ion” (Bioorg Med Chem, 2009).

Molecular target: Hypoxia-inducible factor 1-alpha inhibitor (Homo sapiens, UniProt Q9NWT6)
Test: Inhibition of human recombinant FIH1

Chain of Hypoxia-inducible factor 1-alpha inhibitor (Q9NWT6 whole entry): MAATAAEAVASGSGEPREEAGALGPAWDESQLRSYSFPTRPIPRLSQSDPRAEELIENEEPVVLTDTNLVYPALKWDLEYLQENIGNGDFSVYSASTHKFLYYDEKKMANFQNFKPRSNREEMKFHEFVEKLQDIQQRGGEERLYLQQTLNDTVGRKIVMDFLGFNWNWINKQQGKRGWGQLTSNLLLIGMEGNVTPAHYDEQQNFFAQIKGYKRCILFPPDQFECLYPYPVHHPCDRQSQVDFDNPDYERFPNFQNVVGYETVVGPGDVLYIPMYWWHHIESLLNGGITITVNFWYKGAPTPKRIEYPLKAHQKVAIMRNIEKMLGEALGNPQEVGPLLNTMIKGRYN

First: O=C(CCN1C(=O)/C(=C\C=C\c2ccco2)SC1=S)Nc1cccc2nonc12
Second: COc1cccc(/C=C2\SC(=S)N(CCC(=O)Nc3cccc4nonc34)C2=O)c1
The IC50 of the first is 1.5-fold lower: 48.6 µM for the first, 73.1 µM for the second. The first is the more potent here.

First: O=C(O)CCN1C(=O)/C(=C\c2ccc(-c3ccc(Cl)cc3)o2)SC1=S
Second: CCSc1ccc(-c2nn(-c3ccccc3)cc2/C=C2/SC(=S)N(CC(=O)O)C2=O)cc1
The IC50 of the first is 1.8-fold higher: 66 µM for the first, 36.2 µM for the second. The second is the more potent here.

`COc1cccc(/C=C2\SC(=S)N(CC(=O)Nc3cccc4nonc34)C2=O)c1` and `COc1ccccc1/C=C1\SC(=S)N(CCC(=O)Nc2ccc(S(N)(=O)=O)cc2)C1=O` are within 1.5-fold of each other in IC50: 45.3 µM for the first, 32.1 µM for the second.

`COc1ccccc1OCc1cn2c(-c3ccc4ccccc4n3)nnc2s1` and `COc1ccccc1/C=C/c1cn2c(-c3ccc4ccccc4n3)nnc2s1` are within 1.5-fold of each other in IC50: 41.4 µM for the first, 47.5 µM for the second.
